Values quoted from earlier work, collected in patent US20090156634A1, “Tropane alkaloids and trigonelline combinations and methods for administering the same” (priority 2007, published 2009).
Structures can show the parent of a compound that is named as a salt.

What was measured:
[1] = tested on: rat cultured sensory neurons; settings: attributed to inhibition of potassium channels
central nervous system = settings: orally administered to rats
dendrites and axons = settings: mice models of Alzheimer's disease
diaphragm = settings: rats, low-dose

SMILES	excitability of the rat dorsal gangliae [1]	central nervous system effect (central nervous system)	effect on dendrites and axons (dendrites and axons)	effect on diaphragm fatigue (diaphragm)
C[n+]1cccc(C(=O)[O-])c1 [trigonelline, 3-carboxy-1-methyl-pyridinum inner salt]	increases the excitability	central nervous system stimulating effects	induce regenerative effects in dendrites and axons	–
NCCc1ccc(O)c(O)c1 [dopamine]	–	–	–	can prevent and/or reverse diaphragm fatigue
